Measurements reported in PMC7691360, “Synthesis of novel cytotoxic tetracyclic acridone derivatives and study of their molecular docking, ADMET, QSAR, bioactivity and protein binding properties” (Scientific Reports, 2020).

Assays:
Format in all cases: cell-based
MDA-MB-231 cells = experiment: MTT cytotoxicity assay against MDA-MB-231; details: Homo sapiens, 48 h, read-out: Percentage of inhibition against treated concentrations; for activity at 1 µM: MDAMB231, 1 µM; for activity at 5 µM: MDAMB231, 5 µM; for activity at 10 µM: MDAMB231, 10 µM; for activity at 25 µM: MDAMB231, 25 µM; for activity at 50 µM: MDAMB231, 50 µM
Procedure: (§1) Anticancer activity of 7a–s has been evaluated by MTT [3-(4,5-dimethylthiazol-2-yl)-2,5-diphenyl-tetrazolium bromide] assay and the cell lines HT29 (ATCC: HTB-38), MDA-MB-231 (ATCC: HTB-26), HEK293T (ATCC: CRL-3216) were procured from American type cell culture collection (ATCC), Manassas, USA and other chemicals were procured from Sigma-Aldrich. Then absorbance (used as a measure of cell proliferation) was measured at 570 nm with a kinetic micro-plate reader (BioTek, Winooski, Vermont).
(§2) Having synthesized a series of the title compounds, all of them were screened for their in vitro anticancer profiles against a panel of human colorectal adenocarcinoma (HT29), human breast adenocarcinoma (MDA-MB-231) and mutated Human embryonic kidney 293 (HEK293T) cancer cell lines by using MTT colourmetric assay as per Johan van Meerloo protocol. The three cell lines were cultured in […] medium and supplemented with 10% FBS followed by 100 units/mL penicillin/ streptomycin and were cultured at 37 °C in 5% CO2. Cell proliferation of the growing cells was measured in terms of logarithmic standards. Analytically, all the cultured cells were plated onto 96 well plates at a starting density of 10^5 cells. Then all the cells were treated with title compounds 7a–s for a period of 48 h with different concentrations. After this incubation cell proliferation inhibition was determined by MTT assay and all the experiments were conducted in triplicates and readings were presented as mean ± SD and provided in Tables 1, 2 and 3.

HEK293T cells = experiment: MTT cytotoxicity assay against HEK293T; details: Homo sapiens, HEK-293T, 48 h, read-out: Percentage of inhibition against treated concentrations
Procedure: as §1, §2

HT29 cells = experiment: MTT cytotoxicity assay against HT29; details: Homo sapiens, 48 h, read-out: Percentage of inhibition against treated concentrations; for activity at 1 µM: HT-29, HT29, 1 µM; for activity at 5 µM: HT-29, HT29, 5 µM; for activity at 10 µM: HT-29, HT29, 10 µM; for activity at 25 µM: HT-29, HT29, 25 µM; for activity at 50 µM: HT-29, HT29, 50 µM
Procedure: as §1, §2

SMILES	activity at 1 µM (MDA-MB-231 cells) [%]	activity at 5 µM (MDA-MB-231 cells) [%]	activity at 10 µM (MDA-MB-231 cells) [%]	activity at 25 µM (MDA-MB-231 cells) [%]	activity at 50 µM (MDA-MB-231 cells) [%]	activity at 1 µM (HEK293T cells) [%]	activity at 5 µM (HEK293T cells) [%]	activity at 10 µM (HEK293T cells) [%]	activity at 25 µM (HEK293T cells) [%]	activity at 50 µM (HEK293T cells) [%]	activity at 1 µM (HT29 cells) [%]	activity at 5 µM (HT29 cells) [%]	activity at 10 µM (HT29 cells) [%]	activity at 25 µM (HT29 cells) [%]	activity at 50 µM (HT29 cells) [%]
O=C(CC1CC1)N1CCn2c3ccccc3c(=O)c3cccc1c32 [Compound 7d, 3-(2-Cyclopropylacetyl)-2,3-dihydropyrazino[3,2,1-de]acridin-7(1H)-one]	85.23 ± 0.73	55.73 ± 0.21	45.6 ± 0.98	28.6 ± 0.43	16.83 ± 0.16	99.76 ± 0.56	98.09 ± 0.42	97.1 ± 0.88	96.35 ± 0.19	56.8 ± 0.69	88.71 ± 0.78	63.1 ± 0.71	50.91 ± 0.38	29.68 ± 0.23	18 ± 0.39
O=C(c1ccsc1)N1CCn2c3ccccc3c(=O)c3cccc1c32 [Compound 7h, 3-(Thiophene-3-carbonyl)-2,3-dihydropyrazino[3,2,1-de]acridin-7(1H)-one]	82.62 ± 0.41	53.8 ± 0.75	42.4 ± 0.49	21.4 ± 0.29	12.6 ± 0.72	92.81 ± 0.18	89.61 ± 0.31	86.2 ± 0.66	78.45 ± 0.18	46.23 ± 0.43	87.92 ± 0.24	62.4 ± 0.68	50.2 ± 0.65	29.5 ± 0.51	17.8 ± 0.65
O=C(c1cccc(C(F)(F)F)n1)N1CCn2c3ccccc3c(=O)c3cccc1c32 [Compound 7i, 3-(6-(Trifluoromethyl)picolinoyl)-2,3-dihydropyrazino[3,2,1-de]acridin-7(1H)-one]	84.78 ± 0.64	55.71 ± 0.32	45.6 ± 0.94	28.6 ± 0.3	16.8 ± 0.37	98.39 ± 0.19	95.7 ± 0.97	93.38 ± 0.64	88.56 ± 0.24	52.19 ± 0.26	83.56 ± 0.57	59.1 ± 0.75	46.5 ± 0.52	25.8 ± 0.28	12.2 ± 0.27
O=C(c1ccccc1C(F)(F)F)N1CCn2c3ccccc3c(=O)c3cccc1c32 [Compound 7m, 3-(2-(Trifluoromethyl)benzoyl)-2,3-dihydro-1H,7H-pyrazino[3,2,1-de]acridin-7-one]	92.11 ± 0.88	71.15 ± 0.19	65 ± 0.46	56.9 ± 0.59	33.5 ± 0.57	97.18 ± 0.28	94.73 ± 0.82	92.36 ± 0.46	86.88 ± 0.3	51.2 ± 0.07	92.71 ± 0.01	76.71 ± 0.17	68.5 ± 0.72	57.33 ± 0.32	23.8 ± 0.33
O=C(c1cccc(C(F)(F)F)c1)N1CCn2c3ccccc3c(=O)c3cccc1c32 [Compound 7n, 3-(3-(Trifluoromethyl)benzoyl)-2,3-dihydro-1H,7H-pyrazino[3,2,1-de]acridin-7-one]	90.57 ± 0.59	69.83 ± 0.31	61.97 ± 0.44	54.23 ± 0.32	31.96 ± 0.16	96.84 ± 0.75	94.67 ± 0.59	92.02 ± 0.39	84.32 ± 0.28	49.69 ± 0.21	95.32 ± 0.73	79.12 ± 0.33	72.72 ± 0.33	59.26 ± 0.11	26.9 ± 0.84
O=C(c1cccc(F)c1)N1CCn2c3ccccc3c(=O)c3cccc1c32 [Compound 7q, 3-(3-Fluorobenzoyl)-2,3-dihydro-1H,7H-pyrazino[3,2,1-de]acridin-7-one]	93.46 ± 0.54	72.41 ± 0.45	66.2 ± 0.69	57.89 ± 0.12	34.1 ± 0.37	98.51 ± 0.12	96.21 ± 0.72	94.69 ± 0.34	91.34 ± 0.41	53.8 ± 0.58	94.96 ± 0.53	78.87 ± 0.43	70.57 ± 0.53	58.23 ± 0.29	25.3 ± 0.44
